{"source": "patent US4774238A", "about": "“Heterocyclic-methylene-penems” (Beecham Group plc, priority 1985, dated 1988)", "test": "Solubility of the penem free acid in water", "type": "physicochemical"}
{"smiles": "Cn1cc(/C=C2/C(=O)N3C(C(=O)O)=CS[C@H]23)nn1", "note": "[penem free acid, Crystalline (5R) (Z)-6-(1-Methyl-1,2,3-triazol-4-ylmethylene)penem-3-carboxylic acid]", "values": [{"measurement": "solubility in water", "value": "only sparingly soluble"}]}
